This note sets out measurements from ChEMBL document CHEMBL1135192, “Translocation of the 5-alkoxy substituent of 2,5-dialkoxyarylalkylamines to the 6-position: effects on 5-HT(2A/2C) receptor affinity” (Bioorg Med Chem Lett, 2002).

The target in assay [1] is T1, 5-hydroxytryptamine receptor 2A (Rattus norvegicus, UniProt P14842). Kind of assay: Compound was evaluated for its ability to displace (+/-)[125I]-DOI from 5-hydroxytryptamine 2A receptor in cloned rat cell culture.
The target in assay [2] is T2, 5-hydroxytryptamine receptor 2C (Rattus norvegicus, UniProt P08909).
T2 sequence (P08909 whole entry): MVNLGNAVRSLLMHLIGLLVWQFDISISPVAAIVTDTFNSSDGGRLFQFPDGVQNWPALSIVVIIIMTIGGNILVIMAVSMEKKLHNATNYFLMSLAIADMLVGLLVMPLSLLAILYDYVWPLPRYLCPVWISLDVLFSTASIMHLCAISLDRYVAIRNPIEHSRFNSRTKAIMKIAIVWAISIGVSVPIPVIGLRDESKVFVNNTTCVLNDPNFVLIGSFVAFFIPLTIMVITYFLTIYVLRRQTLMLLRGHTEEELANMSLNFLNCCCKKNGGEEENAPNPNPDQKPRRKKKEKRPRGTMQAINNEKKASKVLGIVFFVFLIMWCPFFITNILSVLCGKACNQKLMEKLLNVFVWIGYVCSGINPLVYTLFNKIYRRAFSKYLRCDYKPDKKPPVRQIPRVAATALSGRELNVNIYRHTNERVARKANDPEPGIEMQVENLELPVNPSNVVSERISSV
Briefly: Compound was evaluated for its ability to displace (+/-)[125I]-DOI from 5-hydroxytryptamine 2C receptor in cloned rat cell culture.

Another assay is filed under the species Rattus norvegicus. Kind of assay: Drug discrimination in LSD-trained rats. In kind it is functional.
Assay [3] deals with T1, 5-hydroxytryptamine receptor 2A. Kind of assay: biochemical.
Description: Compound was evaluated for its ability to displace [125I](R)-DOI from 5-hydroxytryptamine 2A receptor in cloned rat prefrontal cortex homogenate

T1 sequence (P14842 whole entry): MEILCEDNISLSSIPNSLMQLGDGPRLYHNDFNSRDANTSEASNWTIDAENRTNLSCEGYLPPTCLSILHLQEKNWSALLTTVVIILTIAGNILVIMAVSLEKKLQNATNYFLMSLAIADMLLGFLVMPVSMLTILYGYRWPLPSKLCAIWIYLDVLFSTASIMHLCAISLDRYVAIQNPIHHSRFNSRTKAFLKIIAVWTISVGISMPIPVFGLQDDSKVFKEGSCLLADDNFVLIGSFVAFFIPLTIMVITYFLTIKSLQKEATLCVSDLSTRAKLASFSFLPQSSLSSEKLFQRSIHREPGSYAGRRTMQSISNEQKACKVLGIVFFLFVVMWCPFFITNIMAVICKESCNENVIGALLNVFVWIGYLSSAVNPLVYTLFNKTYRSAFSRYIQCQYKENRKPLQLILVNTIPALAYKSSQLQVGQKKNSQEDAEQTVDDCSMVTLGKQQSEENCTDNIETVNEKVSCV

Turning to `COc1cc(C)cc(OC)c1CC(C)N` (stereo not drawn), the figures for the Ki in assay [1] and in assay [2] were 49 nM and 50 nM, respectively.

`COc1cc(CC(C)N)c(OC)cc1C` (stereo not drawn) [DOM] showed an ED50 in the assay filed under Rattus norvegicus of 0.89 µmol/kg. In addition, the affinity in assay [3], expressed as Ki, was 19 nM.

With `Cc1c2ccoc2c(CC(C)N)c2occc12` (stereo not drawn), the values for the Ki in assay [1] and in assay [2] were 1.8 nM and 0.9 nM, respectively.

Take `Cc1c2c(c(CC(C)N)c3c1CCO3)OCC2` (stereo not drawn): the Ki in assay [1] was determined as 6.3 nM; in assay [2], 7.5 nM.

What is called Ki is a dissociation constant, usually derived from enzyme kinetics or from competition with a known ligand. Higher therefore signals lower affinity. A word on the ED50: it is the dose at which the effect has come halfway, by size or by number of responders. Higher therefore signals a need for a large dose.
